In patent US9447136B2, “Semisynthetic derivatives of Nystatin A1” (BLIRT S.A., priority 2012, dated 2016):

How the values were obtained:
[1] = system: Candida albicans ATCC 10231; experiment: Antifungal activity in vitro, serial dilution in RPMI 1640; assay type: cell-based; details: Table 2A, RPMI 1640, pH 7.0; for Antifungal activity Candida albicans ATCC 10231 IC50: A531 50% of control; for Antifungal activity Candida albicans ATCC 10231 MIC: A531 at most 20% of control
Protocol: (§1) For the determination of antifungal activity in vitro we used method of serial dilution in buffered medium RPMI 1640, pH 7.0, in a 96-wells microplates, according to the standard procedure (National Committee for Clinical Laboratory Standards. Reference method for broth dilution antifungal susceptibility testing of yeast, approved standard, 2nd ed. M27-A2 vol. 22 Wayne, Pa., 2002). The optical density of cells suspension was measured using a microplates reader (Victor^3, Perkin-Elmer) at the wavelength λ=531 nm (A531). On the basis of obtained results the diagrams of relation between A531 values and concentration of examined compound were made. From these graphs, the IC50 values were read, which were the interpolated concentrations of a tested compound, at which the A531 value was exactly 50% of the A531 value for the control sample. Moreover, MIC values, that are the lowest concentration of tested compound at which the A531 value were at most 20% of the A531 value measured for the control sample.

[2] = system: Candida glabrata DSM 11226; experiment: as above; assay type: cell-based; details: Table 2A; RPMI 1640, pH 7.0
Protocol: as §1

Candida krusei DSM 6128 = experiment: as above; assay type: cell-based; details: Table 2A; RPMI 1640, pH 7.0
Protocol: as §1

[3] = system: Candida lusitaniae DSM 70102; experiment: as above; assay type: cell-based; details: Table 2A; RPMI 1640, pH 7.0
Protocol: as §1

[4] = system: Candida tropicalis KKP 334; experiment: as above; assay type: cell-based; details: Table 2A; RPMI 1640, pH 7.0
Protocol: as §1

[5] = system: Saccharomyces cerevisiae ATCC 9763; experiment: as above; assay type: cell-based; details: Table 2A; RPMI 1640, pH 7.0; A531 at most 20% of control
Protocol: as §1

Human erythrocytes = experiment: Hemotoxicity (hemolytic activity); details: human erythrocytes
Protocol: The hemotoxicity determination were carried out by the serial dilutions method, according to the procedure described earlier (Ślisz, M., et al., E., J Antibiot 57: 669-678 (2004)). Human erythrocytes were suspensed in the solution of saline to obtain a cell density of suspension 2×10^7/ml. Suitable amounts of diluted solutions of compounds were added to the cell suspension in tubes and were incubated at 37° C. for 30 minutes and then centrifuged (1700×g, 10 min, 4° C.). The concentration of hemoglobin in supernatant after centrifugation of erythrocytes suspension were determined by measuring the absorbance at wavelength λ=540 nm (A540). The maximum level of hemolysis was obtained after incubation of cells suspension in the presence of 0.1% Tritone X-100 (control sample). […] From these graphs, the EH50 values were read which are the interpolated concentrations of compound, for which the A540 value is exactly 50% of the A540 value measured for the control sample.

| Compound | Antifungal activity Candida albicans ATCC 10231 IC50 [1] | Antifungal activity Candida albicans ATCC 10231 MIC [1] | Antifungal activity Candida glabrata DSM 11226 MIC [2] | Antifungal activity Candida krusei DSM 6128 MIC (Candida krusei DSM 6128) | Antifungal activity Candida lusitaniae DSM 70102 MIC [3] | Antifungal activity Candida tropicalis KKP 334 MIC [4] | Antifungal activity Saccharomyces cerevisiae ATCC 9763 MIC [5] | Hemotoxicity BEH50 (Human erythrocytes; 37° C., 30 minutes, concentration causing 50% hemolysis, maximum concentration 300 μg/ml) | % of hemolysis at the concentration 300 μg ml^−1 (Human erythrocytes; 300 μg ml^−1) | EH10 (Human erythrocytes; concentration causing 10% of hemolysis) |
| --- | --- | --- | --- | --- | --- | --- | --- | --- | --- | --- |
| CC1OC(O[C@H]2/C=C/C=C/C=C/C=C/CC/C=C/C=C/[C@H](C)[C@@H](O)[C@@H](C)[C@H](C)OC(=O)C[C@H](O)C[C@H](O)C[C@H](O)CC[C@@H](O)[C@H](O)CC3(O)C[C@H](O)[C@@H](C(=O)O)[C@H](C2)O3)C(O)C(NC2CC(=O)N(CC(C)(C)CN(C)C)C2=O)C1O (stereo partly drawn) [Compound N10, N—[N′-3-(N″,N″-dimethylamino)-2,2-dimethylpropylsuccinimidyl]nystatin A1] | 5.47 µg/mL | 8 µg/mL | 16 µg/mL | 16 µg/mL | 4 µg/mL | 8 µg/mL | 8 µg/mL | – | – | – |
| C[C@@H]1[C@H](O)[C@@H](C)/C=C/C=C/CC/C=C/C=C/C=C/C=C/[C@H](O[C@@H]2O[C@H](C)[C@@H](O)[C@H](NC3CC(=O)N(CCCN(C)C)C3=O)[C@@H]2O)C[C@@H]2O[C@](O)(C[C@@H](O)C[C@@H](O)[C@H](O)CC[C@@H](O)C[C@@H](O)CC(=O)O[C@H]1C)C[C@H](O)[C@H]2C(=O)O (stereo partly drawn) [Compound N6, N—[N′-3-(N″,N″-dimethylamino)propylsuccinimidyl]nystatin A1] | 5.52 µg/mL | 8 µg/mL | 16 µg/mL | 16 µg/mL | 4 µg/mL | 8 µg/mL | 8 µg/mL | – | – | – |
| C[C@@H]1[C@H](O)[C@@H](C)/C=C/C=C/CC/C=C/C=C/C=C/C=C/[C@H](O[C@@H]2O[C@H](C)[C@@H](O)[C@H](NC(=S)NCCN3CCCC3)[C@@H]2O)C[C@@H]2O[C@](O)(C[C@@H](O)C[C@@H](O)[C@H](O)CC[C@@H](O)C[C@@H](O)CC(=O)O[C@H]1C)C[C@H](O)[C@H]2C(=O)O [Compound N16, N-{3-[2-(pyrrolidin-1-yl)ethyl]thioureidyl}nystatin A1] | 3.04 µg/mL | 4 µg/mL | 8 µg/mL | 8 µg/mL | 4 µg/mL | 4 µg/mL | 4 µg/mL | – | – | – |
| CC1OC(O[C@H]2/C=C/C=C/C=C/C=C/CC/C=C/C=C/[C@H](C)[C@@H](O)[C@@H](C)[C@H](C)OC(=O)C[C@H](O)C[C@H](O)C[C@H](O)CC[C@@H](O)[C@H](O)CC3(O)C[C@H](O)[C@@H](C(=O)O)[C@H](C2)O3)C(O)C(NC2CC(=O)N(CCN(C)C)C2=O)C1O (stereo partly drawn) [Compound N7, N—[N′-2-(N″,N″-dimethylamino)ethylsuccinimidyl]nystatin A1] | 3.99 µg/mL | 8 µg/mL | 8 µg/mL | 16 µg/mL | 4 µg/mL | 8 µg/mL | 8 µg/mL | – | – | – |
| N—[N′-2-(pyrrolidin-1-yl)ethylsuccinimidyl]nystatin A1 [Compound N11] | 3.91 µg/mL | 8 µg/mL | 8 µg/mL | 8 µg/mL | 4 µg/mL | 8 µg/mL | 8 µg/mL | – | – | – |
| C[C@@H]1[C@H](O)[C@@H](C)/C=C/C=C/CC/C=C/C=C/C=C/C=C/[C@H](O[C@@H]2O[C@H](C)[C@@H](O)[C@H](NC(=S)NCCN(C)C)[C@@H]2O)C[C@@H]2O[C@](O)(C[C@@H](O)C[C@@H](O)[C@H](O)CC[C@@H](O)C[C@@H](O)CC(=O)O[C@H]1C)C[C@H](O)[C@H]2C(=O)O [Compound N18, N-{3-[2-(N,N-dimethylamino)ethyl]thioureidyl}nystatin A1] | 2.97 µg/mL | 4 µg/mL | 8 µg/mL | 8 µg/mL | 4 µg/mL | 4 µg/mL | 4 µg/mL | – | – | – |
| N-{3-[2-(morpholin-1-yl)ethyl]thioureidyl}nystatin A1 [Compound N13] | 3.88 µg/mL | 8 µg/mL | 16 µg/mL | 16 µg/mL | 8 µg/mL | 8 µg/mL | 8 µg/mL | – | – | – |
| CC1C=CC=CCCC=CC=CC=CC=CC(OC2OC(C)C(O)C(N(CCCN(C)C)CC3(O)OCC(O)C(O)C3O)C2O)CC2OC(O)(CC(O)C(O)CCC(O)CC(O)CC(O)CC(=O)OC(C)C(C)C1O)CC(O)C2C(=O)O (stereo not drawn) [Compound N30, N-fructosyl-N-[3-(N′,N′-dimethylamin)propyl]nystatin A1] | 5.79 µg/mL | 8 µg/mL | 16 µg/mL | 16 µg/mL | 8 µg/mL | 16 µg/mL | 8 µg/mL | – | – | – |
| N,N-diethylnystatin A1 [Compound N24] | 3.82 µg/mL | 8 µg/mL | 16 µg/mL | 16 µg/mL | 4 µg/mL | 8 µg/mL | 8 µg/mL | – | – | – |
| C[C@@H]1[C@H](O)[C@@H](C)/C=C/C=C/CC/C=C/C=C/C=C/C=C/[C@H](O[C@@H]2O[C@H](C)[C@@H](O)[C@H](NC(=O)[C@@H](N)Cc3ccc([N+](=O)[O-])cc3)[C@@H]2O)C[C@@H]2O[C@](O)(C[C@@H](O)C[C@@H](O)[C@H](O)CC[C@@H](O)C[C@@H](O)CC(=O)O[C@H]1C)C[C@H](O)[C@H]2C(=O)O [Compound N40, N-L-(4-nitrophenyl)alanylnystatin A1] | 5.56 µg/mL | 8 µg/mL | 16 µg/mL | 16 µg/mL | – | 8 µg/mL | 8 µg/mL | >300 µg/mL | 7.45% | >300 µg/mL |
